Patent publication US8362011B2, “Tricyclic triazolic compounds” (Laboratories del Dr. Esteve, S.A., priority 2007, dated 2013)

Compound	melting point
CS(=O)(=O)N1CC2OCc3c(-c4ccccc4)nnn3[C@@H]2C1 (some centres unmarked) [Example 19, (5a,8a)-7-(methylsulfonyl)-3-phenyl-4,5a,6,7,8,8a-hexahydropyrrolo[3,4-b][1,2,3]triazolo[1,5-d][1,4]oxazine]	293 to 295 °C
COc1ccc(CN2CC3OCc4cnnn4[C@@H]3C2)cc1 (stereo partly drawn) [Example 1, (5a,8a-trans)-7-(4-methoxybenzyl)-4,5a,6,7,8,8a-hexahydropyrrolo[3,4-b][1,2,3]triazolo[1,5-d][1,4]oxazine]	150 to 151 °C
CS(=O)(=O)N1CC2OCc3cnnn3[C@@H]2C1 (stereo partly drawn) [Example 14, (5a,8a-trans)-7-(methylsulfonyl)-4,5a,6,7,8,8a-hexahydropyrrolo[3,4-b][1,2,3]triazolo[1,5-d][1,4]oxazine]	204 to 206 °C
O=C(c1ccccc1)N1CC2OCc3cnnn3[C@@H]2C1 (stereo partly drawn) [Example 22, phenyl((5a,8a-trans)-5a,6,8,8a-tetrahydropyrrolo[3,4-b][1,2,3]triazolo[1,5-d][1,4]oxazin-7(4H)-yl)methanone]	173 to 174 °C
c1nnn2c1COC1CNC[C@H]12 (some centres unmarked)	217 °C (dec.)
O=C(c1ccccc1)N1CC2OCc3c(-c4ccccc4)nnn3[C@@H]2C1 (stereo partly drawn) [Example 27, phenyl((5a,8a-trans)-3-phenyl-5a,6,8,8a-tetrahydropyrrolo[3,4-b][1,2,3]triazolo[1,5-d][1,4]oxazin-7(4H)-yl)methanone]	237 to 239 °C
O=S(=O)(c1ccccc1)N1CC2OCc3cnnn3[C@@H]2C1 (stereo partly drawn) [Example 16, (5a,8a-trans)-7-(phenylsulfonyl)-4,5a,6,7,8,8a-hexahydropyrrolo[3,4-b][1,2,3]triazolo[1,5-d][1,4]oxazine]	168 to 170 °C
O=C(c1cccs1)N1CC2OCc3cnnn3[C@@H]2C1 (stereo partly drawn) [Example 26, ((5a,8a-trans)-5a,6,8,8a-tetrahydropyrrolo[3,4-b][1,2,3]triazolo[1,5-d][1,4]oxazin-7(4H)-yl)(thiophen-2-yl)methanone]	186 to 188 °C
O=C(CCc1ccccc1)N1CC2OCc3cnnn3[C@@H]2C1 (stereo partly drawn) [Example 24, 3-phenyl-1-((5a,8a-trans)-5a,6,8,8a-tetrahydropyrrolo[3,4-b][1,2,3]triazolo[1,5-d][1,4]oxazin-7(4H)-yl)propan-1-one]	134 to 135 °C
CCN1CC2OCc3cnnn3[C@@H]2C1 (some centres unmarked)	59 to 60 °C
O=S(=O)(c1ccc(F)cc1)N1CC2OCc3c(-c4ccccc4)nnn3[C@@H]2C1 (stereo partly drawn) [Example 20, (5a,8a-trans)-7-(4-fluorophenylsulfonyl)-3-phenyl-4,5a,6,7,8,8a-hexa hydropyrrolo[3,4-b][1,2,3]triazolo[1,5-d][1,4]oxazine]	287 to 288 °C
O=C(c1ccccc1F)N1CC2OCc3cnnn3[C@@H]2C1 (stereo partly drawn) [Example 21, (2-fluorophenyl)((5a,8a-trans)-5a,6,8,8a-tetrahydropyrrolo[3,4-b][1,2,3]triazolo[1,5-d][1,4]oxazin-7(4H)-yl)methanone]	188 to 190 °C
O=S(=O)(c1ccccc1F)N1CC2OCc3cnnn3[C@@H]2C1 (stereo partly drawn) [Example 17, (5a,8a-trans)-7-(2-fluorophenylsulfonyl)-4,5a,6,7,8,8a-hexahydro pyrrolo[3,4-b][1,2,3]triazolo[1,5-d][1,4]oxazine]	178 to 180 °C

Other lines, results leading:

melting point	Compound
155 to 157 °C	CC(C)(C)OC(=O)N1C[C@@H]2OCc3cnnn3[C@H]2C1 [Example 53, (5aS,8aS)-tert-butyl 5a,6,8,8a-tetrahydropyrrolo[3,4-b][1,2,3]triazolo[1,5-d][1,4]oxazine-7(4H)-carboxylate]
236 to 237 °C	CC(C)(C)OC(=O)N1C[C@@H]2OCc3c(-c4ccccc4)nnn3[C@H]2C1 [Example 55, (5aS,8aS)-tert-butyl 3-phenyl-5a,6,8,8a-tetrahydropyrrolo[3,4-b][1,2,3] triazolo[1,5-d][1,4]oxazine-7(4H)-carboxylate]
256 to 257 °C	c1ccc(-c2nnn3c2COC2CN(c4ncccn4)C[C@H]23)cc1 (stereo partly drawn) [Example 40, (5a,8a-trans)-3-phenyl-7-(pyrimidin-2-yl)-4,5a,6,7,8,8a-hexahydro pyrrolo[3,4-b][1,2,3]triazolo[1,5-d][1,4]oxazine]
222 to 223 °C	c1ccc(N2CC3OCc4cnnn4[C@@H]3C2)cc1 (stereo partly drawn) [Example 42, (5a,8a-trans)-7-phenyl-4,5a,6,7,8,8a-hexahydropyrrolo[3,4-b][1,2,3] triazolo[1,5-d][1,4]oxazine]
248 to 249 °C	O=C(c1cccs1)N1CC2OCc3c(-c4ccccc4)nnn3[C@@H]2C1 (stereo partly drawn) [Example 30, ((5a,8a-trans)-3-phenyl-5a,6,8,8a-tetrahydropyrrolo[3,4-b][1,2,3]triazolo[1,5-d][1,4]oxazin-7(4H)-yl)(thiophen-2-yl)methanone]
209 to 212 °C	O=C(OCc1ccccc1)N1CC2OCc3c(-c4ccccc4)nnn3[C@@H]2C1 (stereo partly drawn) [Example 34, (5a,8a-trans)-benzyl3-phenyl-5a,6,8,8a-tetrahydropyrrolo[3,4-b][1,2,3] triazolo[1,5-d][1,4]oxazine-7(4H)-carboxylate]
194 to 195 °C	CCCCNC(=O)N1CC2OCc3cnnn3[C@@H]2C1 (stereo partly drawn) [Example 31, (5a,8a-trans)-N-butyl-5a,6,8,8a-tetrahydropyrrolo[3,4-b][1,2,3]triazolo[1,5-d][1,4]oxazine-7(4H)-carboxamide]
238 to 239 °C	CC(C)(C)OC(=O)N1CC2OCc3c(-c4ccc(C(F)(F)F)cc4)nnn3[C@H]2C1 (stereo partly drawn) [Example 57, (5aS,8aS)-tert-butyl-3-(4-(trifluoromethyl)phenyl)-5a,6,8,8a-tetrahydropyrrolo[3,4-b][1,2,3]triazolo[1,5-c][1,4]oxazine-7(4H)-carboxylate]
256 to 257 °C	c1cnc(N2CC3OCc4cnnn4[C@@H]3C2)nc1 (stereo partly drawn) [Example 35, (5a,8a-trans)-7-(pyrimidin-2-yl)-4,5a,6,7,8,8a-hexahydropyrrolo[3,4-b][1,2,3]triazolo[1,5-d][1,4]oxazine]
216 °C (dec.)	c1ccc(N2CC3OCc4cnnn4[C@@H]3C2)nc1 (stereo partly drawn) [Example 44, (5a,8a-trans)-7-(pyridin-2-yl)-4,5a,6,7,8,8a-hexahydropyrrolo[3,4-b][1,2,3]triazolo[1,5-d][1,4]oxazine]
249 to 250 °C	CC(C)(C)OC(=O)N1C[C@@H]2OCc3c(-c4cccc(F)c4)nnn3[C@H]2C1 [Example 56, (5aS,8aS)-tert-butyl 3-(3-fluorophenyl)-5a,6,8,8a-tetrahydropyrrolo[3,4-b][1,2,3]triazolo[1,5-d][1,4]oxazine-7(4H)-carboxylate]
195 to 196 °C	Cc1nnn2c1CO[C@H]1CN(C(=O)OC(C)(C)C)C[C@@H]12 [Example 54, (5aS,8aS)-tert-butyl 3-methyl-5a,6,8,8a-tetrahydropyrrolo[3,4-b][1,2,3] triazolo[1,5-d][1,4]oxazine-7(4H)-carboxylate]
275 to 277 °C	O=C(Nc1ccccc1)N1CC2OCc3c(-c4ccccc4)nnn3[C@@H]2C1 (stereo partly drawn) [Example 33, (5a,8a-trans)-N,3-diphenyl-5a,6,8,8a-tetrahydropyrrolo[3,4-b][1,2,3] triazolo[1,5-d][1,4]oxazine-7(4H)-carboxamide]
